Patent US10227331B2 (priority 2015, dated 2019)

Columns and labels:
[1] = test system: P. aeruginosa expressing IMP-1, efflux+ (MB9798); assay type: cell-based, Pseudomonas aeruginosa; conditions: for P. aeruginosa expressing IMP-1, efflux+ (MB9798) MITC95: imipenem at 2 μg/mL, in the presence of a class A, C, D serine β-lactamase inhibitor closely related to relebactam; for Efflux ratio: ratio MITC95 PA_9798/MITC95 PA_9799
From the text: (§1) The strain background is Pseudomonas aeruginosa PAO1.

[2] = test system: P. aeruginosa expressing IMP-1, efflux− (MB9799); test: Efflux: concentration of MBL inhibitor which restores susceptibility to imipenem; assay type: cell-based, Pseudomonas aeruginosa; conditions: imipenem at 2 μg/mL, in the presence of a class A, C, D serine β-lactamase inhibitor closely related to relebactam
From the text: as §1

[3] = target: VIM-1 (Pseudomonas aeruginosa (strain ATCC 15692 / DSM 22644 / CIP 104116 / JCM 14847 / LMG 12228 / 1C / PRS 101 / PAO1), UniProt A0A0F7KYQ8); test: biochemical; conditions: CCF2-FA substrate, 2 hours at 25° C
Method in brief: (§2)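 IC50 values derive from 4-parameter fits of percent inhibition against inhibitor concentration on semi-log axes. Activity was monitored by fluorescence with the CCF2-FA substrate after a 2-hour, 25° C incubation of compound, enzyme and substrate.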

[4] = test system: Escherichia coli expressing NDM-1 (CLB30005, CLB30016); assay type: cell-based; conditions: with imipenem 1 μg/ml; 95% inhibition of bacterial growth
Method in brief: (§3)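 Restoration of imipenem susceptibility (1 μg/ml imipenem) was judged by absorbance after 22–24 h at 35° C. Test compound was added to bacteria suspended 1:100 in 1.1× CAMHB from overnight blood-agar cultures.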

[5] = test system: Serratia marcescens expressing IMP-1 (CL5741); assay type: cell-based; conditions: with imipenem 1 μg/ml; 95% inhibition of bacterial growth
Method in brief: as §3

[6] = test system: Klebsiella pneumoniae expressing VIM-1 (IHMA599644); assay type: cell-based; conditions: with imipenem 1 μg/ml; 95% inhibition of bacterial growth
Method in brief: as §3

[7] = target: IMP-1 (Serratia marcescens, UniProt P52699); test: biochemical; assay type: biochemical; conditions: CCF2-FA substrate, 2 hours at 25° C; read-out: IMP-1 IC50
Method in brief: as §2

[8] = target: NDM-1 (Klebsiella pneumoniae, UniProt C7C422); test: biochemical; assay type: biochemical; conditions: CCF2-FA substrate, 2 hours at 25° C; read-out: NDM-1 IC50
Method in brief: as §2

NDM-1, sequence (C7C422 whole entry, looked up, species assumed): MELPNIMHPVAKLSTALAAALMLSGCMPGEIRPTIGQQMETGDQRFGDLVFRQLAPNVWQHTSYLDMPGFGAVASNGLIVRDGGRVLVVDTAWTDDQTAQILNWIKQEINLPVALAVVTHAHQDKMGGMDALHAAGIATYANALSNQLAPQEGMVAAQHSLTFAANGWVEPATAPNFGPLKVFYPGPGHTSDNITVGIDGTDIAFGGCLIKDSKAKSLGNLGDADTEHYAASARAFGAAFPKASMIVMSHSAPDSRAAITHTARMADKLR
IMP-1, sequence (P52699 whole entry, looked up, species assumed): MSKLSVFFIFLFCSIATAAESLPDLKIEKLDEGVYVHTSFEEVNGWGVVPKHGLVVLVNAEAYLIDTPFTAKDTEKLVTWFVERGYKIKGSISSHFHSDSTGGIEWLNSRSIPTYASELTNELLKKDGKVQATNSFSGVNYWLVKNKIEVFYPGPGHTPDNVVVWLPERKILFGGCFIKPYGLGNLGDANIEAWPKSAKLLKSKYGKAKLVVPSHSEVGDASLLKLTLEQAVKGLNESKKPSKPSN

Row | SMILES | P. aeruginosa expressing IMP-1, efflux+ (MB9798) MITC95 [1] [µM] | Efflux ratio [1] | P. aeruginosa expressing IMP-1, efflux− (MB9799) MITC95 [2] [µM] | IC50 [3] [nM] | Escherichia coli expressing NDM-1 (CLB30016) MITC95 [4] [µM] | Serratia marcescens expressing IMP-1 (CL5741) MITC95 [5] [µM] | Klebsiella pneumoniae expressing VIM-1 (IHMA599644) MITC95 [6] [µM] | IC50 [7] [nM] | IC50 [8] [nM]
1 | NC(=O)c1ccc(-c2ccc(S(=O)(=O)C3CNC3)c(S(N)(=O)=O)c2-c2nn[nH]n2)c2nc(N)sc12 [Example 39, 2-amino-4-(4-(azetidin-3-ylsulfonyl)-3-sulfamoyl-2-(2H-tetrazol-5-yl)phenyl)benzo[d]thiazole-7-carboxamide] | 0.7813 | 0.50 | 1.563 | 0.129 | 1.563 | 3.125 | 3.125 | 0.276 | 0.0303
2 | Nc1nc2cc(-c3ccc(S(=O)(=O)C4CNC4)c(S(N)(=O)=O)c3-c3nn[nH]n3)ccc2[nH]1 [Example 40, 3-(2-amino-1H-benzo[d]imidazol-5-yl)-6-(azetidin-3-ylsulfonyl)-2-(2H-tetrazol-5-yl)benzenesulfonamide] | 3.125 | 5.61 | 0.5573 | 0.348 | 0.4453 | 0.5573 | 1.375 | 1.99 | 0.409
3 | Nc1nc2cccc(-c3ccc(S(=O)(=O)C4CCNCC4)c(S(N)(=O)=O)c3-c3nn[nH]n3)c2[nH]1 [Example 42, 3-(2-amino-3H-benzo[d]imidazol-4-yl)-6-(piperidin-4-ylsulfonyl)-2-(2H-tetrazol-5-yl)benzenesulfonamide] | 0.7813 | 1.00 | 0.7813 | 0.306 | 0.5859 | 1.563 | 1.563 | 1.19 | 0.177
4 | Nc1nc2c(-c3ccc(S(=O)(=O)C4CNC4)c(S(N)(=O)=O)c3-c3nn[nH]n3)cccc2[nH]1 [Example 43, 3-(2-amino-1H-benzo[d]imidazol-4-yl)-6-(azetidin-3-ylsulfonyl)-2-(2H-tetrazol-5-yl)benzenesulfonamide] | 0.6081 | 0.95 | 0.6406 | 0.258 | 0.2902 | 0.7982 | 1.151 | 0.828 | 0.0835
5 | CC(=O)N1CCC(S(=O)(=O)c2ccc(-c3cccc4nc(N)[nH]c34)c(-c3nn[nH]n3)c2S(N)(=O)=O)CC1 [Example 44, 6-(1-acetylpiperidin-4-ylsulfonyl)-3-(2-amino-3H-benzo[d]imidazol-4-yl)-2-(2H-tetrazol-5-yl)benzenesulfonamide] | 100 | 32.00 | 3.125 | 0.299 | 6.25 | 6.25 | 25 | 1.98 | 0.447
6 | CS(=O)(=O)N1CCC(S(=O)(=O)c2ccc(-c3cccc4nc(N)[nH]c34)c(-c3nn[nH]n3)c2S(N)(=O)=O)CC1 [Example 45, 3-(2-amino-3H-benzo[d]imidazol-4-yl)-6-(1-(methylsulfonyl)piperidin-4-ylsulfonyl)-2-(2H-tetrazol-5-yl)benzenesulfonamide] | 50 | 16.00 | 3.125 | 0.135 | 25 | 6.25 | 6.25 | 1.69 | 0.29
7 | CCOC(=O)N1CCC(S(=O)(=O)c2ccc(-c3cccc4nc(N)[nH]c34)c(-c3nn[nH]n3)c2S(N)(=O)=O)CC1 [Example 46, ethyl 4-(4-(2-amino-3H-benzo[d]imidazol-4-yl)-2-sulfamoyl-3-(2H-tetrazol-5-yl)phenylsulfonyl)piperidine-1-carboxylate] | 200 | 64.00 | 3.125 | 0.378 | 6.25 | 25 | 25 | 2.15 | 0.445
8 | Nc1nc2cccc(-c3ccc(S(=O)(=O)C4CCN(CCO)CC4)c(S(N)(=O)=O)c3-c3nn[nH]n3)c2[nH]1 [Example 47, 3-(2-amino-3H-benzo[d]imidazol-4-yl)-6-(1-(2-hydroxyethyl)piperidin-4-ylsulfonyl)-2-(2H-tetrazol-5-yl)benzenesulfonamide] | 6.25 | 4.00 | 1.563 | 0.361 | 1.563 | 3.125 | 3.125 | 0.846 | 0.214
9 | NCCN1CCC(S(=O)(=O)c2ccc(-c3cccc4nc(N)[nH]c34)c(-c3nn[nH]n3)c2S(N)(=O)=O)CC1 [Example 48, 3-(2-amino-3H-benzo[d]imidazol-4-yl)-6-(1-(2-aminoethyl)piperidin-4-ylsulfonyl)-2-(2H-tetrazol-5-yl)benzenesulfonamide] | 3.125 | 2.00 | 1.563 | 0.404 | 1.563 | 3.125 | 3.125 | 2.3 | 0.392
10 | NC(=O)N1CCC(S(=O)(=O)c2ccc(-c3cccc4nc(N)[nH]c34)c(-c3nn[nH]n3)c2S(N)(=O)=O)CC1 [Example 49, 4-(4-(2-amino-3H-benzo[d]imidazol-4-yl)-2-sulfamoyl-3-(2H-tetrazol-5-yl)phenylsulfonyl)piperidine-1-carboxamide] | 12.5 | 4.00 | 3.125 | 0.308 | 6.25 | 6.25 | 6.25 | 1.37 | 0.278
11 | NC(=O)CN1CC(S(=O)(=O)c2ccc(-c3cccc4[nH]c(N)nc34)c(-c3nn[nH]n3)c2S(N)(=O)=O)C1 [Example 50, 2-(3-(4-(2-amino-1H-benzo[d]imidazol-4-yl)-2-sulfamoyl-3-(2H-tetrazol-5-yl)phenylsulfonyl)azetidin-1-yl)acetamide] | 3.125 | 1.00 | 3.125 | 0.585 | 3.125 | 3.125 | 6.25 | 1.44 | 0.242
12 | NCCN1CC(S(=O)(=O)c2ccc(-c3cccc4[nH]c(N)nc34)c(-c3nn[nH]n3)c2S(N)(=O)=O)C1 [Example 51, 3-(2-amino-1H-benzo[d]imidazol-4-yl)-6-(1-(2-aminoethyl)azetidin-3-ylsulfonyl)-2-(2H-tetrazol-5-yl)benzenesulfonamide] | 0.7813 | 1.00 | 0.7813 | 0.426 | 0.3906 | 0.7813 | 1.563 | 1.31 | 0.145
13 | CN1CC(S(=O)(=O)c2ccc(-c3cccc4[nH]c(N)nc34)c(-c3nn[nH]n3)c2S(N)(=O)=O)C1 [Example 52, 3-(2-amino-1H-benzo[d]imidazol-4-yl)-6-(1-methylazetidin-3-ylsulfonyl)-2-(2H-tetrazol-5-yl)benzenesulfonamide] | 6.25 | 4.00 | 1.563 | 0.628 | 0.3906 | 1.563 | 3.125 | 1.33 | 0.222
